Tests used:
[1] = tested on: Chrysosporium Keratinophilium; test: fungicidal test on fungal strains found around pools; format: cell-based; conditions: in 24 heures; dissolved in water at a concentration below 50 ppm with 30 ppm Cu and 100 ppb Ag
[2] = tested on: Trichophyton rubrum; test: as above; format: cell-based; conditions: in 24 heures; dissolved in water at a concentration below 50 ppm with 30 ppm Cu and 100 ppb Ag

CCCCCCCCCCCCCCCC[N+](C)(C)CCCCCC[N+](C)(C)c1ccc(NC(=N)NC(=N)Nc2ccc([N+](C)(C)CCCCCC[N+](C)(C)CCCCCCCCCCCCCCCC)cc2)cc1 [exemple 30]
action fongicide [1]: action fongicide | action fongicide [2]: action fongicide

From EP0411111B1, “AMMONIUM COMPOUND, COMPOSITION CONTAINING IT AND DESINFECTION METHOD” (FABRICOM AIR CONDITIONING S.A., priority 1989, dated 1990)
